# Earlier results, collected in patent US20040096453A1, “Methods and compositions to treat glycosaminoglycan-associated molecular interactions” (Neurochem (International) Limited, priority 1998, published 2004).
# Tested on: two streptococcal proteins (9,15 Kda)
# Settings: basement membranes of cardiac muscle and renal tissues; Bergey & Stenson
substance,measurement,value
heparin,inhibition of binding of streptococcal proteins to basement membranes,completely inhibited
